Data reported in patent publication US12624044B2, “SMARCA degraders and uses thereof” (Kymera Therapeutics, Inc., priority 2019, dated 2026).

Columns and labels:
Type in all cases: cell-based
SMARCA2 [1] = molecular target: T1, SMARCA2 (Homo sapiens, UniProt P51531); test: MSD SMARCA2 degradation in A549 cell line; settings: for Dmax: A549, A549 cells; for Dmax / DC50: 24 h; for DC50: read-out: SMARCA2 MSD A549 degradation 24 h: Average external-Abs DC50
Procedure, shortened: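 SMARCA2 remaining was measured by MSD electrochemiluminescence on RIPA lysates (anti-SMARCA2 plus SULFO-TAG anti-rabbit). Prior exposure: 24 h of A549 cells to a 10-point, 3-fold dilution series topping at 1000 nM final; Dmax % given as graded codes.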

SMARCA4 = molecular target: T2, SMARCA4 (Homo sapiens, UniProt P51532); test: SMARCA4 Western blot MV4-11 degradation; settings: for Dmax: MV4-11, MV4-11 cells, read-out: SMARCA4 WB MV411 degradation 24 h: Average Dmax %; for Dmax / DC50: 24 h; for DC50 / SMARCA4 WB MV411 degradation 24 h: Average Dmax %: MV4-11 cells; for DC50: read-out: SMARCA4 WB MV411 degradation 24 h: Average external-Abs DC50
T2 construct: SMARCA2 and SMARCA4 protein degradation in MV4-11 cells; endogenous in cells; host or cells: MV4-11
T2 sequence (P51532 whole entry): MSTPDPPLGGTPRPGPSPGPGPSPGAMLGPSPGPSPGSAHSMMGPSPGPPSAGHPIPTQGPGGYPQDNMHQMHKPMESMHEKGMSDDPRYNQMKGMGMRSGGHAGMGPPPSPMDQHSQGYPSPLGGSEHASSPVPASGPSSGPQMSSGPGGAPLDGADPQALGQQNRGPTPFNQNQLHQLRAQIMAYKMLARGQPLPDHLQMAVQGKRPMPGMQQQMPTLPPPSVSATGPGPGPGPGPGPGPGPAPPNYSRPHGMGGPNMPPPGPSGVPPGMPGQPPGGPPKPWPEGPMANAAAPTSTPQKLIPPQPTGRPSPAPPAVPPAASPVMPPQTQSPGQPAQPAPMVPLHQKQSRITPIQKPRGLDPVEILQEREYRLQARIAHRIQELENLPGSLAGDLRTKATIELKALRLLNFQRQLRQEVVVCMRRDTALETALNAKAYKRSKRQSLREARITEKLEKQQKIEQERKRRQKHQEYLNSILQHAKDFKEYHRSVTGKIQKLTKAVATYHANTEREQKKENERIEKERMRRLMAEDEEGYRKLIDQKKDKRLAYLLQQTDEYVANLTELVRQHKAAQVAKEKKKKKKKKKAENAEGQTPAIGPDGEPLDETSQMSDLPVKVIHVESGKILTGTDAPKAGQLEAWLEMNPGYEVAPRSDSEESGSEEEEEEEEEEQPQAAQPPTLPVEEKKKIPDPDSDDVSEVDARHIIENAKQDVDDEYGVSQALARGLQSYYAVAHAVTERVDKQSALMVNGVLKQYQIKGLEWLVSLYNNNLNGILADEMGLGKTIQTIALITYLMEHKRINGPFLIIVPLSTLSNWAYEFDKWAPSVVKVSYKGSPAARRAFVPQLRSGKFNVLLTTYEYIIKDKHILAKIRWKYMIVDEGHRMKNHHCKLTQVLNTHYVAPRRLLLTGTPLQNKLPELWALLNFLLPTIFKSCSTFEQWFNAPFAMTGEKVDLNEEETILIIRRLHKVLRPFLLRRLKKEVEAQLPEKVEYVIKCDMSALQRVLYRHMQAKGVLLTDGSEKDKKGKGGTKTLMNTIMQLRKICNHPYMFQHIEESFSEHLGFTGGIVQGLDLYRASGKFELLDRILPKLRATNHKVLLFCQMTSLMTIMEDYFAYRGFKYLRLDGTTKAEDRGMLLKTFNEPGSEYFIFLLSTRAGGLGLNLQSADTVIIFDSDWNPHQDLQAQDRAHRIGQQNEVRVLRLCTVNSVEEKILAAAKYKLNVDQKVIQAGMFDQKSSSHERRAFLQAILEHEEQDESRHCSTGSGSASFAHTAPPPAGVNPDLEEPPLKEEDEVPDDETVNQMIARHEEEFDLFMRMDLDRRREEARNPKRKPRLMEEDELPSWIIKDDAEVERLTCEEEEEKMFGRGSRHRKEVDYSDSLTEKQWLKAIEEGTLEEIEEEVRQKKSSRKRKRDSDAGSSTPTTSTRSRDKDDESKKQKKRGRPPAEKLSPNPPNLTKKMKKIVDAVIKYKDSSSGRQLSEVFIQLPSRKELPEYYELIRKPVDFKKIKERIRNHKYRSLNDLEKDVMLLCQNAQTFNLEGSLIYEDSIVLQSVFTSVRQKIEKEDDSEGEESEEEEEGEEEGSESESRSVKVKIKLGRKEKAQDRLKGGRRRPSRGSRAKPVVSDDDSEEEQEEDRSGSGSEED
Procedure, shortened: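 MV4-11 cells treated with compound for 24 h, lysed in RIPA with protease/phosphatase inhibitors, and SMARCA2 and SMARCA4 (BRG1) levels assessed by Western blot with β-actin loading control and LI-COR fluorescent read-out. Maximal degradation (Dmax %) after 24 h binned into letter codes.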

SMARCA2 [2] = molecular target: T1, SMARCA2; test: SMARCA2 Western blot MV4-11 degradation; settings: for Dmax: MV4-11, MV4-11 cells, read-out: SMARCA2 WB MV411 degradation 24 h: Average Dmax %; for Dmax / DC50: 24 h; for DC50: read-out: SMARCA2 WB MV411 degradation 24 h: Average external-Abs DC50
Experimental: Cells were seeded into 6-well plates (MV4-11: 4×10^6 cells/well/1 ml) and 1 ml of 2× compound solution was added into the well to make the final concentration and the plates were mixed well and incubated for 24 hours (No cytotoxicity was observed). The cell were collected with media and spun at 3000 rpm for 5 minutes. The supernatant was aspirated and the well and the cells were washed with cold PBS once and combined for centrifugation again; the supernatant aspirated again. 200 ul pre-chilled RIPAlysis buffer (Boston BioProducts BP-115D) with protease/phosphatase inhibitor (Roche 05892791001/Roche 04906837001) was directly added into the tube to lyze the cells for 20 minutes on ice. The cell lysate were collected into EP tubes and spun at 13000 rpm for 20 minutes and 72 ul supernatant was transferred to a fresh EP tube containing 18 ul of 5× loading buffer (Beyotime Bio P0015) to make the loading samples. The samples were heated to 100° C. for 10 minutes and cooled to RT and microcentrifuged. 20 ul of samples were loaded onto SDS-PAGE gel (Novex, WG1402BOX) and the gel was run at 80 V for 20 minutes and 120 V for 1.5 hours. The samples were electrotransfer to a NC membrane using wet-transfer method with 250 mA for 2.5 hours. The membrane was blocked with LICOR blocking buffer (LI-COR, 927-50000) for 1 hour. The membrane was washed three times with TBST (CST #9997S), 5 minutes each. Incubation was performed with primary antibody prepared in blocking buffer with 0.1% Tween-20 (Solarbio, P8220) at 4° C. overnight (Anti-SMARCA2/BRM antibody (ab15597) 1:500; Anti-BRG1 antibody [EPR3912] (ab108318) 1:1000; Rabbit anti-Baf180 antibody [EPR15860] (Abcam, ab196022) 1:1000; mouse anti-beta-Actin (8H10D10) (CST #3700) 1:10000). The membrane was washed three times with TBST, 5 minutes each. Incubation with secondary antibody was performed for 1 hour at RT (anti-rabbit IgG (Licor, 926-32211) 1:5000; anti-mouse IgG (LI-COR, 926-68070) 1:5000). The membrane was washed three times with TBST, 5 minutes each and lastly the LiCOR was read.
The letter codes for the percentage of SMARCA degradation after 24 hours (Dmax %) include: A (>90% degradation), B (>70-90% degradation), C (50-70% degradation), and D (<50% degradation).

T1 sequence (P51531 whole entry): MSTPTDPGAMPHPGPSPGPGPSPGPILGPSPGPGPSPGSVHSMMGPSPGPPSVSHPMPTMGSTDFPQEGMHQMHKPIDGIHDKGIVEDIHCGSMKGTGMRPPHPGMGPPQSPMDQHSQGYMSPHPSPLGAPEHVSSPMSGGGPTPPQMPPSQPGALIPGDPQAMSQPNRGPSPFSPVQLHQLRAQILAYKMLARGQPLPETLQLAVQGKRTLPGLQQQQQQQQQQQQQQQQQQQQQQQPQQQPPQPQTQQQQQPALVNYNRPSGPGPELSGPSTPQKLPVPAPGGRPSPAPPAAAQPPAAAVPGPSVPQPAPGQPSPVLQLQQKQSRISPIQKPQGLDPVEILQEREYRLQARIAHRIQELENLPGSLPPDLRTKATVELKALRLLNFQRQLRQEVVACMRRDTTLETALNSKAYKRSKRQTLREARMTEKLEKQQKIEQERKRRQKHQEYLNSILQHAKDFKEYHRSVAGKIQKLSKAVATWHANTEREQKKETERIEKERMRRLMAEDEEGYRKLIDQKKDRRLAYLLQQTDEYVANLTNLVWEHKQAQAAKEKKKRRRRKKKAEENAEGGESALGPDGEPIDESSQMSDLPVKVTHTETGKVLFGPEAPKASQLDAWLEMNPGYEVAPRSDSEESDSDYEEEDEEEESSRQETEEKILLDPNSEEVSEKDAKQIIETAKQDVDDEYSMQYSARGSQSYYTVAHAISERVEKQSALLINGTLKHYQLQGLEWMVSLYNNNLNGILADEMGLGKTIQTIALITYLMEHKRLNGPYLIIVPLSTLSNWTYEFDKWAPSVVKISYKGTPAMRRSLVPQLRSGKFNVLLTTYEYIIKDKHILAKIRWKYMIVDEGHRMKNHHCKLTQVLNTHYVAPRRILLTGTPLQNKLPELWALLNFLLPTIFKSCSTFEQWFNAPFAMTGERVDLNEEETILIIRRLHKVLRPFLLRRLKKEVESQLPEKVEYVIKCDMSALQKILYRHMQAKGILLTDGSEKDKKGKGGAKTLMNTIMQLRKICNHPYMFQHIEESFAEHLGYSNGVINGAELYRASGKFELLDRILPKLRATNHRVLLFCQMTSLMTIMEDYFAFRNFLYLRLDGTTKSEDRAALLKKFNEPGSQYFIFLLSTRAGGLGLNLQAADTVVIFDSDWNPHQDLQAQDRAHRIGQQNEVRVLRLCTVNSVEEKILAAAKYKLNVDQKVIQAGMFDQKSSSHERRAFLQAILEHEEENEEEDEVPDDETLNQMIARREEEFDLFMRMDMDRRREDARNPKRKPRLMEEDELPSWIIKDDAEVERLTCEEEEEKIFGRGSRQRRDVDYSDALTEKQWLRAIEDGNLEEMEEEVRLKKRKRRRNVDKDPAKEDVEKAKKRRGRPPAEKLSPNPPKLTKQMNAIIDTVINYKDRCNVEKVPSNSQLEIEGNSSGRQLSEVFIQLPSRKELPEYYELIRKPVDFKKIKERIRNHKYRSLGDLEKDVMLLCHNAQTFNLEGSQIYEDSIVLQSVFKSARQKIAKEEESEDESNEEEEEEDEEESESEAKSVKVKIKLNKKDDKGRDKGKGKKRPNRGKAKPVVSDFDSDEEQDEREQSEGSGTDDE

SMILES	Dmax (SMARCA2 [1]) [%]	Dmax (SMARCA4) [%]	Dmax (SMARCA2 [2]) [%]	DC50 (SMARCA2 [1]; A549 cells) [nM]	DC50 (SMARCA4) [nM]	DC50 (SMARCA2 [2]; MV4-11 cells) [nM]	SMARCA2 MSD A549 degradation 24 h: Average Dmax % (SMARCA2 [1]; A549 cells)	SMARCA4 WB MV411 degradation 24 h: Average Dmax % (SMARCA4)	SMARCA2 WB MV411 degradation 24 h: Average Dmax % (SMARCA2 [2]; MV4-11 cells)
Cc1ncsc1-c1ccc(CNC(=O)[C@@H]2C[C@@H](O)CN2C(=O)[C@@H](NC(=O)CN2CCN([C@H]3CC[C@H](c4cnc(N5C6CCC5CN(c5cc(-c7ccccc7O)nnc5N)C6)nc4)CC3)CC2)C(C)(C)C)cc1 (single isomer, unassigned) [I-446, (2S,4R)-1-((2S)-2-(2-(4-((1r,4S)-4-(2-(3-(3-amino-6-(2-hydroxyphenyl)pyridazin-4-yl)-3,8-diazabicyclo[3.2.1]octan-8-yl)pyrimidin-5-yl)cyclohexyl)piperazin-1-yl)acetamido)-3,3-dimethylbutanoyl)-4-hydroxy-N-(4-(4-methylthiazol-5-yl)benzyl)pyrrolidine-2-carboxamide]	> 90	> 90	> 90	–	–	–	–	–	–
Cc1ncsc1-c1ccc(CNC(=O)[C@@H]2C[C@@H](O)CN2C(=O)[C@@H](NC(=O)c2ccc(N3CC(n4cc(-c5cc(-c6ccccc6O)nnc5N)cn4)C3)cc2)C(C)(C)C)cc1 [I-514]	> 90	> 90	> 90	100 to 500	< 100	< 100	–	–	–
Cn1c(=O)n(C2CCC(=O)NC2=O)c2ccc([C@H]3CC[C@H](N4CCC(c5cnc(N6C7CCC6CN(c6cc(-c8ccccc8O)nnc6N)C7)nc5)CC4)CC3)cc21 (some centres unmarked) [I-291]	> 90	> 90	–	< 100	< 100	< 100	–	–	–
Cc1ncsc1-c1ccc(CNC(=O)[C@@H]2C[C@@H](OC(=O)[C@H](C)N)CN2C(=O)[C@@H](NC(=O)[C@H]2CC[C@H](c3cnc(N4C5CCC4CN(c4cc(-c6ccccc6O)nnc4N)C5)nc3)CC2)C(C)(C)C)cc1 [I-409]	> 90	> 90	> 90	< 100	< 100	< 100	–	–	–
Cc1ncsc1-c1ccc(CNC(=O)[C@@H]2C[C@@H](O)CN2C(=O)[C@@H](NC(=O)[C@H]2C[C@]3(C2)C[C@H](c2cnc(N4C5CCC4CN(c4cc(-c6ccccc6O)nnc4N)C5)nc2)C3)C(C)(C)C)c(C(F)(F)F)c1 (some centres unmarked) [I-420]	–	–	–	100 to 500	100 to 500	< 100	A (A (>90% degradation))	D (D (<50% degradation))	B (B (>70-90% degradation))
Cc1ncsc1-c1ccc(C2(NC(=O)[C@@H]3C[C@@H](O)CN3C(=O)[C@@H](NC(=O)[C@H]3CC[C@H](c4cnc(N5C6CCC5CN(c5cc(-c7ccccc7O)nnc5N)C6)nc4)CC3)C(C)(C)C)CC2)cc1 [I-439]	> 90	> 90	> 90	< 100	< 100	< 100	–	–	–
Cc1ncsc1-c1ccc(CNC(=O)[C@@H]2C[C@@H](O)CN2C(=O)[C@@H](NC(=O)CN2CCN(C3CCC(c4cnc(N5C6CCC5CN(c5cc(-c7ccccc7O)nnc5N)C6)nc4)CC3)CC2)C(C)(C)C)cc1 (stereo partly drawn) [I-354, (2S,4R)-1-((2S)-2-(2-(4-(4-(2-(3-(3-amino-6-(2-hydroxyphenyl)pyridazin-4-yl)-3,8-diazabicyclo[3.2.1]octan-8-yl)pyrimidin-5-yl)cyclohexyl)piperazin-1-yl)acetamido)-3,3-dimethylbutanoyl)-4-hydroxy-N-(4-(4-methylthiazol-5-yl)benzyl)pyrrolidine-2-carboxamide]	> 90	> 90	> 90	< 100	< 100	< 100	–	–	–
Cc1ncsc1-c1ccc(CNC(=O)[C@@H]2C[C@@H](O)CN2C(=O)[C@@H](NC(=O)[C@H]2CC3(C2)C[C@H](c2cnc(N4C5CCC4CN(c4cc(-c6ccccc6O)nnc4N)C5)nc2)C3)C(C)(C)C)c(C(F)(F)F)c1 (some centres unmarked) [I-419]	> 90	70 to 90	> 90	100 to 500	100 to 500	< 100	–	–	–
Cc1ncsc1-c1ccc(CNC(=O)[C@@H]2C[C@@H](O)CN2C(=O)[C@@H](NC(=O)[C@H]2CC3(C2)C[C@H](c2cnc(N4C5CCC4CN(c4cc(-c6ccccc6O)nnc4N)C5)nc2)C3)C(C)(C)C)cc1 (some centres unmarked) [I-368]	> 90	> 90	> 90	< 100	< 100	< 100	–	–	–
Cc1ncsc1-c1ccc(CNC(=O)[C@@H]2C[C@@H](O)CN2C(=O)[C@@H](NC(=O)[C@H]2CC[C@H](c3cnc(N4C5CCC4CN(c4cc(-c6ccccc6O)nnc4N)C5)nc3C)CC2)C(C)(C)C)cc1 [I-412]	> 90	> 90	> 90	< 100	< 100	< 100	–	–	–
Cc1ncsc1-c1ccc(CNC(=O)[C@@H]2C[C@@H](O)CN2C(=O)[C@@H](NC(=O)C2CCC(c3cnc(N4C5CCC4CN(c4cc(-c6ccccc6O)nnc4N)C5)nc3)CC2C)C(C)(C)C)cc1 (some centres unmarked) [I-411]	50 to 70	> 90	> 90	501 to 1000	< 100	< 100	–	–	–
CC(=O)Nc1cc(-c2scnc2C)ccc1CNC(=O)[C@@H]1C[C@@H](O)CN1C(=O)[C@@H](NC(=O)[C@H]1CC[C@H](c2cnc(N3C4CCC3CN(c3cc(-c5ccccc5O)nnc3N)C4)nc2)CC1)C(C)(C)C [I-430, (2S,4R)—N-(2-acetamido-4-(4-methylthiazol-5-yl)benzyl)-1-((2S)-2-((1r,4S)-4-(2-(3-(3-amino-6-(2-hydroxyphenyl)pyridazin-4-yl)-3,8-diazabicyclo [3.2.1]octan-8-yl)pyrimidin-5-yl)cyclohexanecarboxamido)-3,3-dimethylbutanoyl)-4-hydroxypyrrolidine-2-carboxamide]	> 90	> 90	> 90	< 100	< 100	< 100	–	–	–
Cc1ncsc1-c1ccc(CNC(=O)[C@@H]2C[C@@H](O)CN2C(=O)[C@@H](NC(=O)[C@H]2CC[C@H](CCCCCN3CCC(Cn4cc(-c5cc(-c6ccccc6O)nnc5N)cn4)CC3)CC2)C(C)(C)C)cc1 [I-378]	> 90	> 90	> 90	100 to 500	< 100	< 100	–	–	–
Cc1ncsc1-c1ccc(CNC(=O)[C@@H]2C[C@@H](O)CN2C(=O)[C@@H](NC(=O)C2CC(N3CCC(n4cc(-c5cc(-c6ccccc6O)nnc5N)cn4)CC3)C2)C(C)(C)C)cc1 (some centres unmarked) [I-484]	70 to 90	70 to 90	> 90	100 to 500	100 to 500	< 100	–	–	–
Cc1ncsc1-c1ccc(CNC(=O)[C@@H]2C[C@@H](O)CN2C(=O)[C@@H](NC(=O)C2CCC(c3cnc(N4C5CCC4CN(c4cc(-c6ccccc6O)nnc4N)C5)nc3)CC2C)C(C)(C)C)cc1 (some centres unmarked) [I-444]	–	–	–	501 to 1000	< 100	< 100	–	–	–
Cc1ncsc1-c1ccc(CNC(=O)[C@@H]2C[C@@H](O)CN2C(=O)[C@@H](NC(=O)[C@H]2CC[C@H](c3cnc(N4C5CCC4CN(c4cc(-c6ccccc6O)nnc4N)C5)nc3)CC2)C(C)(C)C)c(OC(F)(F)F)c1 [I-405]	> 90	> 90	> 90	< 100	100 to 500	< 100	–	–	–
Cc1ncsc1-c1ccc(CNC(=O)[C@@H]2C[C@@H](O)CN2C(=O)[C@@H](NC(=O)[C@H]2CC3(C2)C[C@H](c2ccc(CN4CCC(Cn5cc(-c6cc(-c7ccccc7O)nnc6N)cn5)CC4)cc2)C3)C(C)(C)C)cc1 (some centres unmarked) [I-433]	> 90	–	> 90	< 100	< 100	< 100	–	C (C (50-70% degradation))	–
